These results are taken from ChEMBL document CHEMBL1201862, “PubChem BioAssay data set” (2004).

Assay [1] concerns the target Delta-type opioid receptor (Homo sapiens, UniProt P41143). Kind of assay: Counterscreen for agonists of heterodimerization of the mu 1 (OPRM1) and delta 1 (OPRD1) opioid receptors: Luminescence-based cell-based high throughput dose response assay to identify agonists of OPRD1 homodimerization. [Related pubchem assays (depositor defined):AID504326, AID504355, AID504692, AID504904, AID504905]. The class given is functional. Background: A counterscreen serves to expose hits that act by an unwanted route or on another target.

The target of another assay is Mu-type opioid receptor (Homo sapiens, UniProt P35372). Kind of assay: Counterscreen for agonists of heterodimerization of the mu 1 (OPRM1) and delta 1 (OPRD1) opioid receptors: Luminescence-based cell-based high throughput dose response assay to identify agonists of OPRM1 homodimerization. The class given is functional.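 Also: U2OS cells expressing OPRM1 and beta-arrestin as split beta-galactosidase partners.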
Chain of Mu-type opioid receptor (P35372 whole entry): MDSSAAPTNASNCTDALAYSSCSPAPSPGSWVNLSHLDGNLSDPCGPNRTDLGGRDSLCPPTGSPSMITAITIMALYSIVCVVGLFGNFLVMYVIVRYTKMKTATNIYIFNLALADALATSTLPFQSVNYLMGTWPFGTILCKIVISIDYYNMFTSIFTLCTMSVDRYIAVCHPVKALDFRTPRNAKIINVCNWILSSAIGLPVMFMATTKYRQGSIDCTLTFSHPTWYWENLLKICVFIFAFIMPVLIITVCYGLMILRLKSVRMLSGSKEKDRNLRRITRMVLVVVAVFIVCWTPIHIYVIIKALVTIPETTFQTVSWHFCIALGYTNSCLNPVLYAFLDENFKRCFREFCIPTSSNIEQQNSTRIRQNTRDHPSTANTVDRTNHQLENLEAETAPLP
For assay [2], the target named is T1, Short transient receptor potential channel 4 (Mus musculus, UniProt Q9QUQ5).
T1 sequence (Q9QUQ5 whole entry): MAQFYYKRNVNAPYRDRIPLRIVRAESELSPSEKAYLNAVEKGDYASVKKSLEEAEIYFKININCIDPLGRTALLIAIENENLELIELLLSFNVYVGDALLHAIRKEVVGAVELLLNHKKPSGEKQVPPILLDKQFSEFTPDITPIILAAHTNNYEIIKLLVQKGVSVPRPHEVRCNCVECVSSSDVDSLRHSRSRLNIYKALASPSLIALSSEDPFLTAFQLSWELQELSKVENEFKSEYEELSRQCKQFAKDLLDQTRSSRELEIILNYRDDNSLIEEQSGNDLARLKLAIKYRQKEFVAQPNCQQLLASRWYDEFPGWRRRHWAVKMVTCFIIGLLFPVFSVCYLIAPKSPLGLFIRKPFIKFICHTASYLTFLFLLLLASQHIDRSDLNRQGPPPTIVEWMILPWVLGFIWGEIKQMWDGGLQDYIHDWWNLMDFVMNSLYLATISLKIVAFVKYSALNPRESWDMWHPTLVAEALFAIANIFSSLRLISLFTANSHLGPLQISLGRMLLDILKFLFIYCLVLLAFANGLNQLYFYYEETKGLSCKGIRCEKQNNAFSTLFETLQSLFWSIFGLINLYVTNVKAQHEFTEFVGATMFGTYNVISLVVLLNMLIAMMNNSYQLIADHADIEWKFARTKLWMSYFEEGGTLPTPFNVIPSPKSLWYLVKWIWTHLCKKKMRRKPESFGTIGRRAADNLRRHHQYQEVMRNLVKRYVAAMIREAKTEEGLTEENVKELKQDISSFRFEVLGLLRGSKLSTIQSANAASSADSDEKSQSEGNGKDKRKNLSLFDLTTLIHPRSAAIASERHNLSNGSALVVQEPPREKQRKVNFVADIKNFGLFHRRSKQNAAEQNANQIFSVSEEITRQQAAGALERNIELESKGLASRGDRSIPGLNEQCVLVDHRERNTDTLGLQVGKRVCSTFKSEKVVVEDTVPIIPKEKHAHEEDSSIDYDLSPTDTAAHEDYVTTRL
Kind of assay: calcium entry via TRPC4 opening agents – cell-based, HEK293 TRPC4/mu-opioid, Fluo-4 calcium, dose response (AID 434937). The class given is functional.

In assay [3] the target is 5-hydroxytryptamine receptor 5A (Homo sapiens, UniProt P47898). The experiment in a line: Counterscreen for agonists of OPRM1-OPRD1 heterodimerization: luminescence-based cell-based high throughput dose response assay to identify agonists of 5-hydroxytryptamine (serotonin) 5A receptor (HTR5A). [Related pubchem assays (depositor defined):AID504326, AID504355, AID504692, AID504904, AID504905]. The class given is functional.
Chain of 5-hydroxytryptamine receptor 5A (P47898 whole entry): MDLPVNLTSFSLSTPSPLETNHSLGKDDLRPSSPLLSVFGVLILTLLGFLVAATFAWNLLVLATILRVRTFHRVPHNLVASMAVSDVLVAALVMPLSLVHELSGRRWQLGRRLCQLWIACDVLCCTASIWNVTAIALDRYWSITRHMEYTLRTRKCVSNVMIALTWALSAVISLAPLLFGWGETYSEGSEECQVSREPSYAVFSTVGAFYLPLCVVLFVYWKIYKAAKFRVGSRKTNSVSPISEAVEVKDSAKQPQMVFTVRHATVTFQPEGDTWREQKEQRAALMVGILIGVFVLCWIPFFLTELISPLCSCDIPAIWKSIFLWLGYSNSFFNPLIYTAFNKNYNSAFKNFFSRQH

For assay [4], the target named is Voltage-gated inwardly rectifying potassium channel KCNH2 (Homo sapiens, UniProt Q12809). The following applies: Potency.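 Also: confirmatory quantitative high-throughput screen measuring inhibition of hERG channel activity.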
Chain of Voltage-gated inwardly rectifying potassium channel KCNH2 (Q12809 whole entry): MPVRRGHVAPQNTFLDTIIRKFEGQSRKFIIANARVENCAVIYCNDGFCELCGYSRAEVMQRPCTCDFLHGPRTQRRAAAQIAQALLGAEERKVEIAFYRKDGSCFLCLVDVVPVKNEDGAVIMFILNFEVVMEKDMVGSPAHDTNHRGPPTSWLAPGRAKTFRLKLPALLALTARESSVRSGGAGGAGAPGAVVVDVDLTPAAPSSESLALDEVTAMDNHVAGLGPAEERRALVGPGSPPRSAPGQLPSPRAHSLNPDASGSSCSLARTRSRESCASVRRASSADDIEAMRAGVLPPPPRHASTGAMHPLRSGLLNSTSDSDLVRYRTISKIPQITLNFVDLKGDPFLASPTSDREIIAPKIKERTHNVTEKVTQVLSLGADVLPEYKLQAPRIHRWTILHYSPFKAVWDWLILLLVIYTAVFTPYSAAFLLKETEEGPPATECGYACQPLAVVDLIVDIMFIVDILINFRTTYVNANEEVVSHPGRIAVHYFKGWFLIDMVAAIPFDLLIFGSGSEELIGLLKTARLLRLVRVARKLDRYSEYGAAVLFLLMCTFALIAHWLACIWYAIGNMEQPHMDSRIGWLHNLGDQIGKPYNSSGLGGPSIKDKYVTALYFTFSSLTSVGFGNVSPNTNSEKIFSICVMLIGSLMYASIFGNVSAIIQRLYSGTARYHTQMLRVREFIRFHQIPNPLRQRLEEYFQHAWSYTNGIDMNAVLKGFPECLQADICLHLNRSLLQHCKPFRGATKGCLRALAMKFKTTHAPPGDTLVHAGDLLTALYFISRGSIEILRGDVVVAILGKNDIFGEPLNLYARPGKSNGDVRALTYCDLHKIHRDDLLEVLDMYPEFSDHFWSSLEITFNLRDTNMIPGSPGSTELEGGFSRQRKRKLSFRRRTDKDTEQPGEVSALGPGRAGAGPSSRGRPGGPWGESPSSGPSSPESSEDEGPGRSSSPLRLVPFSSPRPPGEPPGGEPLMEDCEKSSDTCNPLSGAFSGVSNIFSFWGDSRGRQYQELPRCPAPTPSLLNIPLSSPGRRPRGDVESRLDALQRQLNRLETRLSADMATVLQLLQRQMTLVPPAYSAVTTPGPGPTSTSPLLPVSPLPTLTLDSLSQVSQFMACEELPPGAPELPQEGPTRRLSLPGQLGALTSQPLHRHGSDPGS
Assay [5] can be described thus: NIH-3T3 fibroblast cytotoxicity, dose response, cytotoxicity control, cell-based, fluorescence, Alamar Blue, secondary assay (AID 2327).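 Also: NIH-3T3 mouse fibroblasts cultured with fluconazole at 8 µg/mL.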 It counts as functional. A general note: The colour change of resazurin is a common sign of viable cells or microbes.
In assay [6] the target is ATP-dependent molecular chaperone HSP82 (Candida albicans (strain WO-1) (Yeast), UniProt C4YTQ8). Kind of assay: steroid-induced GRE reporter decrease in yeast – S. cerevisiae, luminescence, Hsp90 inhibitor project, dose response (AID 2400).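 Also: beta-galactosidase luminescence from glucocorticoid response element reporter as proxy for Hsp90 function; inhibitor potency where signal loss means Hsp90 inhibition.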 The class given is functional, cell-based.
Chain of ATP-dependent molecular chaperone HSP82 (C4YTQ8 whole entry): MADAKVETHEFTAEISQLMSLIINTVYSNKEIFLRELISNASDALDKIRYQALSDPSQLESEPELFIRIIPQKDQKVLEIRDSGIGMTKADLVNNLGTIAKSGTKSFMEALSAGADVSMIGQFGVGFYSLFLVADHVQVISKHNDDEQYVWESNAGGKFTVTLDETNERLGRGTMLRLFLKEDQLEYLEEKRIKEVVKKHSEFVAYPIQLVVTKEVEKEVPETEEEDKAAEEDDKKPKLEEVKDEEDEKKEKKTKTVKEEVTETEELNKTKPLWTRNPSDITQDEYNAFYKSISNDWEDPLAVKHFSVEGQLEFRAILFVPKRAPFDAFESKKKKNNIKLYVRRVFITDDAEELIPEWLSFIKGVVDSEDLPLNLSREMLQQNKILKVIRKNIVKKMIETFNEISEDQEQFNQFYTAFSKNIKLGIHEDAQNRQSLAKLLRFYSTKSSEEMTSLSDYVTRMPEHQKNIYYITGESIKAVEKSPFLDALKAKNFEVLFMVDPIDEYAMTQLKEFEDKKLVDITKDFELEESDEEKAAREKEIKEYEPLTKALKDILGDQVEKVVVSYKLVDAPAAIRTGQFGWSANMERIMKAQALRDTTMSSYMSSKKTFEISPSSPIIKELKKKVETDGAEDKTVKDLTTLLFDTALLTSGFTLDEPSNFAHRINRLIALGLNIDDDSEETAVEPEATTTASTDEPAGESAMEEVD
Assay [7] in a line: fluconazole-exposed Candida albicans growth modulators – fluorescence, retest, confirmation (AID 2467). It counts as functional, cell-based.
For assay [8], the target named is Serine/threonine-protein phosphatase (Candida dubliniensis (strain CD36 / CBS 7987 / NCPF 3949 / NRRLY-17841) (Yeast), UniProt B9W6M3). The experiment in a line: blockers of CaCl2-induced CDRE-lacZ signaling – S. cerevisiae, luminescence, secondary, dose response (AID 2388).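 Also: yeast reporter cells carrying a calcineurin-responsive lacZ construct stimulated with calcium chloride; luminescent beta-galactosidase reporter signal in whole cells rather than isolated phosphatase activity; potency for inhibition where a drop in reporter signal means calcineurin blockade.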 It counts as functional, cell-based.
Chain of Serine/threonine-protein phosphatase (B9W6M3 whole entry): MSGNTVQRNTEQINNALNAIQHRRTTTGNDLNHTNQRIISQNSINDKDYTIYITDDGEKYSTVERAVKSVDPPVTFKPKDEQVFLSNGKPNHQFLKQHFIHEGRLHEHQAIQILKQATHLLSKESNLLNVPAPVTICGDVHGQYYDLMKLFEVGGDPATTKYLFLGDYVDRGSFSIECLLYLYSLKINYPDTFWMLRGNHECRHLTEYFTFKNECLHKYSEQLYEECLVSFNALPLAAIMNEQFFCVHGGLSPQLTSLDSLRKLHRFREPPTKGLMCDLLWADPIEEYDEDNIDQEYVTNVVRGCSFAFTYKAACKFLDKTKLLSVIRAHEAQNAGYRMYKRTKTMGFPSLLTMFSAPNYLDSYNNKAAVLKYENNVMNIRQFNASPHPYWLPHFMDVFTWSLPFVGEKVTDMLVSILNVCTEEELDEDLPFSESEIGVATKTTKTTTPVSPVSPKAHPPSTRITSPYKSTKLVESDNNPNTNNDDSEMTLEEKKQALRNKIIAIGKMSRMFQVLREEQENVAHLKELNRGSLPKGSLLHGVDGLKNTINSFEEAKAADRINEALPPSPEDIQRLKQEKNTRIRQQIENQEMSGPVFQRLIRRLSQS
A further assay has as its system HeLa. The experiment in a line: ATP-based viability loss in HeLa cells – cell-based, CellTiter-Glo luminescence, cherry-pick samples, cytotoxicity control for MITF activator project, dose response (AID 540259). The following applies: Homo sapiens. The class given is functional.
A short description of assay [9]: Trypanosoma cruzi growth suppression in host cells – NIH3T3 host cells, beta-gal luminescence, confirmation (AID 2044).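 Also: intracellular parasites grown in NIH/3T3 mouse fibroblasts as host cells; luminescent beta-galactosidase reporter signal from transgenic T. cruzi replicating inside host cells; inhibitors lower the luminescence signal.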 It counts as functional, cell-based.
Assay [10] is described as follows: Vero E6 cell cytotoxicity, dose response, cytotoxicity control for non-replicating M. tuberculosis project, secondary assay (AID 492998). The class given is functional, VeroE6. The note with it: Vero C1008.
The nature of assay [11]: NIH3T3 cell viability loss – ATP luminescence, mouse fibroblasts, counter-screen, dose response (AID 2010).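 Also: cells exposed to compound for about 90 hours before reading.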 It counts as functional, cell-based.
Assay [12] is described as follows: HepG2 cell cytotoxicity, dose response, cytotoxicity control for non-replicating M. tuberculosis project (AID 489018). The note with it: Mycobacterium tuberculosis. It counts as functional.
The nature of assay [13]: loss of viability in HepG2 cells – cell-based, CellTiter-Glo, cherry-picked, cytotoxicity control for Shn3 inhibitor project, dose response (AID 624134). It counts as functional.
Assay [14] addresses T1, Short transient receptor potential channel 4. Kind of assay: block of DAMGO-driven TRPC4 calcium entry – cell-based, HEK293 TRPC4/mu-opioid, Fluo-4 calcium, dose response (AID 434942).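 Also: potency of inhibitors blocking the TRPC4 calcium response.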 It counts as functional.
A further assay in a line: cells. It counts as functional.
Assay [15] is described as follows: non-specific 3'UTR reporter inhibition in Clone20-Shn3RL – cell-based, Renilla luciferase, cherry-picked, counter-screen for Shn3 inhibitor project, dose response (AID 624133). It counts as functional.
A short description of assay [16]: reduction of Shn3 3'UTR-driven luciferase in osteoblasts – cell-based, Clone20 osteoblasts, firefly luciferase, cherry-picked, dose response (AID 624132).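 Also: firefly luciferase luminescence from reporter carrying the Shn3 3'UTR in osteoblasts.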 The class given is functional.
Assay [17] in a line: THP-1 cell cytotoxicity, dose response, cytotoxicity control for non-replicating M. tuberculosis project (AID 489025). It counts as functional.

Structures are written as SMILES. Active and inactive are the calls of the source.

Chain of Delta-type opioid receptor (P41143 whole entry): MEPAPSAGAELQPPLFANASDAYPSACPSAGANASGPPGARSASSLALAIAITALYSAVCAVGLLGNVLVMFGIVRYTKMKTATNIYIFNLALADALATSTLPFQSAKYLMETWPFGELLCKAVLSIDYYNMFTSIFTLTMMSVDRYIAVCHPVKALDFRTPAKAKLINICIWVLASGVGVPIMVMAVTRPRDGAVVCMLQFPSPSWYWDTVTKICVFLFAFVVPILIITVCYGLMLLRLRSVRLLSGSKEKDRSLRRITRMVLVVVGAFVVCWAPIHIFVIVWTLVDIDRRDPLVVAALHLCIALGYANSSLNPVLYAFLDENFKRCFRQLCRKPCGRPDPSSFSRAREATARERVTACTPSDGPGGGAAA

Regarding `COc1ccc(C(CNC(=O)CSc2ccccc2C)N(C)C)cc1` (stereo unspecified), the EC50 in assay [1] was > 92.5 µM (inactive); at Mu-type opioid receptor, > 92.5 µM (inactive); in [2] it was 0.237 µM (active); in assay [3], > 92.5 µM (inactive).
`CCCCNCC`: the half-maximal activity concentration (AC50) in [4] is 31.6 µM (inconclusive).
On to `CCN=C(S)NNC(=O)c1cc(-c2cc(C)ccc2C)nc2ccccc12`, for which the concentration for a half-maximal effect (EC50) in assay [5] was 129 µM (active); in [6] it was > 150 µM (inactive); in assay [7], 0.296 µM (active); in [8], > 180 µM (inactive).
`Nc1ccc(CSc2ccc(Cl)cc2)c(Cl)c1`: in the assay with HeLa, the half-maximal activity concentration (AC50) was 75.6 µM (active).
On to `Cc1ccccc1OCC(O)Cn1c(=N)n(Cc2ccccc2)c2ccccc21` (stereo unspecified), for which the EC50 in assay [1] is > 92.5 µM (inactive); at Mu-type opioid receptor it was > 92.5 µM (inactive); in assay [2] it was 3.35 µM (active); in assay [9], 2.75 µM (active); in assay [11], > 30 µM (not active); in assay [3], > 92.5 µM (inactive). Moreover, the EC50 in assay [14] was 1.06 µM (active). For the same molecule, the CC50 is 19.9 µM (active) in [10], 8.06 µM (active) in [12] and 7.48 µM (active) in assay [17]. Besides, the concentration at half-maximal activity (AC50) in assay [13] was 11.2 µM (active); in assay [15], 1.49 µM (active); in [16] it was 2.25 µM (active). In addition, in the assay “cells”, the concentration for half-maximal inhibition (IC50) is 18.5 µM (active).
Regarding `COc1ccc(-c2nnc(-c3ccc4ccccc4c3)o2)cc1`, the AC50 in the assay on HeLa is > 350 µM (inactive).
As to `Cc1cccc(C)c1OCC(N)C(C)C` (stereo unspecified), in [4], the concentration at half-maximal activity (AC50) is 35.5 µM (inconclusive).

A word on the EC50: it is the concentration that produces a half-maximal response. As a reminder, the AC50 is the midpoint of the concentration-response curve, whichever way the signal moves. A word on the CC50: it is the concentration at which the toxic effect on the cells reaches its halfway point. The term IC50 denotes the concentration needed to halve the response being measured.
